Experimental data from patent US20240027453A1, “METHOD FOR DETECTION AND QUANTITATIVE MONITORING OF INFECTIONS WITH HERPESVIRUSES” (The Trustees of Princeton University, priority 2020, published 2024).
Like-named read-outs stand apart in the source and are kept apart here.

Tested on: HCMV
Format: cell-based
Method: In example herpesvirus PRM assay methods shown herein, cell pellets were lysed in 2% SDS, 100 mM NaCl, 0.5 mM EDTA, 50 mM Tris, pH 8.2, and 50 μg of protein was reduced and alkylated with 25 mM TCEP and 50 mM CAM respectively for 20 min at 70° C. Proteins were then precipitated via methanol chloroform precipitation (Wessel & Flugg, Anal Biochem. 138(1):141-143, 1984), resuspended in 50 mM HEPES, pH 8.2 and digested overnight with trypsin (50:1 protein:enzyme w/w ratio). Digested peptides were desalted by SDB-RPS StageTip as previously described (Lum et al., Cell Syst., 7(6):[…], 2018; Greco et al., Methods Mol Biol 1410:39-63, 2016; Federspiel & Cristea, Methods Mol Biol., 1977:115-143, 2019).
Peptides (1.0 μg on column) were analyzed by LC-MS/MS using a Dionex Ultimate 3000 UHPLC coupled online to an EASYSpray ion source and a Q Exactive HF. Peptides were separated on an EASYSpray C18 column (75 μm×25 cm) heated to 50° C. using a linear gradient of 5% B to 32% B over 60 min at a flow rate of 250 nL/min and were ionized at 1.7 kv. Mobile phase A consisted of 0.1% FA in H2O and mobile phase B consisted of 0.1% FA, 2.9% H2O in ACN.
The PRM method was controlled by a peptide inclusion list with retention time windows of 6 min for selected precursor ions.
The PRM assay was developed and analyzed using the open-source software Skyline (Maclean et al., Bioinformatics 26(7):966-968, 2010). Summed area under the curve of 3-4 transitions per peptide was used for quantitation. Targeted peptides were normalized to host protein loading control peptides. Peptide values for each sample were scaled to the average of each peptide across all runs. The average of multiple peptides was used as the inferred value for the protein measurement when more than one peptide was quantified (Federspiel et al., PLoS Biol. 17(9):e3000437. Doi: 10.1371/journal.pbio.3000437). PRM quantitation data were graphed using the Python Seaborn and Matplotlib libraries.
MRC5 primary human fibroblasts (HFs) (ATCC CCL-171) were used as the model system for HSV-1 and HCMV infections and were cultured in complete growth medium (DMEM supplemented with 10% fetal bovine serum and 1% penicillin-streptomycin antibiotics) at 37° C. and 5% CO2. iSLK.219 cells harboring latent KSHV (a gift from Dr. Britt Glaunsinger, University of California, Berkeley) were grown in complete growth medium supplemented with 500 μg/ml hygromycin (ThermoFisher Scientific, 10687010) at 37° C. and 5% CO2. All cells were used for experiments within a maximum of 10 passages.
Wild type HSV-1 strain 17+ (a gift from Beate Sodeik, Hannover Medical School, Hannover, Germany) was propagated as previously described (Diner et al., 2015). Briefly, PO stocks were generated by electroporating pBAC-HSV-1 into U-2 OS cells. […] In a similar manner, wild type HCMV strain AD169 was produced from BAC electroporation into HFs and working stocks were propagated by infecting HFs at a low level. In both cases, cell-associated virus was released by sonication, combined with supernatant virus, then concentrated by ultracentrifugation (20,000 rpm, 2 hours, 4° C. with SW28 swinging bucket rotor [Beckman Coulter]) over a 10% ficoll (HSV-1) or 20% sorbitol (HCMV) cushion. Virus stock titers were determined by plaque assay for HSV-1 or tissue culture infectious dose (TCID50) for HCMV and infections were performed at a multiplicity of infection (MOI) of 3.
12 hours prior to virus infection or reactivation, cells were treated with either the small molecule drug or DMSO/PBS control at an equivalent volume. […] For infection cycles lasting longer than 24 hours, small molecule drugs were re-added to the cell culture medium every 24 hours. Upon collection, cells were rinsed with PBS, scraped into a microcentrifuge tube, pelleted by centrifugation, and rinsed again with PBS.

Nc1c(S(=O)(=O)c2ccccc2)c2nc3ccccc3nc2n1-c1ccc(F)cc1 [CAY10602]
GO (P16750) protein level (timepoint 72, L): 0.05989 | IR11 (P16809) protein level (timepoint 72, L): 0.4344 | MCP (P16729) protein level (timepoint 72, L): 0.02624 | SCP (Q7M6N6) protein level (timepoint 72, L): 0.015 | TRM2 (P16792) protein level (timepoint 72, L): 0.0795 | UL22A (P16845) protein level (timepoint 72, L): 0.215 | UL25 (P16761) protein level (timepoint 72, L): 0.096 | UL29 (P16764) protein level (timepoint 72, L): 0.506 | UL30 (P16765) protein level (timepoint 72, L): 0.1431 | UL31 (P16848) protein level (timepoint 72, L): 0.1447 | UL43 (P16781) protein level (timepoint 72, L): 0.03176 | UL52 (P16793) protein level (timepoint 72, L): 0.1191 | UL76 (P16725) protein level (timepoint 72, L): 0.03192 | UL80 (P16753) protein level (timepoint 72, L): 0.06052 | UL82 (P06726) protein level (timepoint 72, L): 0.1042 | UL87 (P16730) protein level (timepoint 72, L): 0.09029 | UL88 (P16731) protein level (timepoint 72, L): 0.1686 | UL94 (P16800) protein level (timepoint 72, L): 0.1145 | UL99 (P13200) protein level (timepoint 72, L): 0.05513 | UL103 (P16734) protein level (timepoint 72, L): 0.09275 | UL117 (P16770) protein level (timepoint 72, L): 0.3151 | gH (P12824) protein level (timepoint 72, L): 0.1032 | gL (P16832) protein level (timepoint 72, L): 0.08246 | gM (P16733) protein level (timepoint 72, L): 0.06242 | gN (P16795) protein level (timepoint 72, L): 0.1122 | IR10 (P16808) protein level (timepoint 72, LL): 0.03558 | IR12 (P16810) protein level (timepoint 72, LL): 0.4497 | TRM3 (P16732) protein level (timepoint 72, LL): 0.03658 | TRX1 (P16783) protein level (timepoint 72, LL): 0.02099 | TRX2 (P16728) protein level (timepoint 72, LL): 0.02193 | UL24 (P16760) protein level (timepoint 72, LL): 0.1166 | UL40 (P16780) protein level (timepoint 72, LL): 0.4727 | UL47 (P16784) protein level (timepoint 72, LL): 0.06008 | UL49 (P16786) protein level (timepoint 72, LL): 0.1643 | UL69 (P16749) protein level (timepoint 72, LL): 0.2062 | UL70 (P17149) protein level (timepoint 72, LL): 0.4194 | UL83 (P06725) protein level (timepoint 72, LL): 0.02048 | UL132 (P69338) protein level (timepoint 72, LL): 0.1287 | US15 (P09718) protein level (timepoint 72, LL): 0.4326 | CVC2 (P16726) protein level (timepoint 96, DE): 0.1714 | DBP (P17147) protein level (timepoint 96, DE): 0.7941 | HELI (P16736) protein level (timepoint 96, DE): 0.8017 | IR01 (P09710) protein level (timepoint 96, DE): 0.4575 | NEC1 (P16794) protein level (timepoint 96, DE): 0.0869 | NEC2 (P16791) protein level (timepoint 96, DE): 0.2886 | RIR1 (P16782) protein level (timepoint 96, DE): 0.2098 | TRM1 (P16724) protein level (timepoint 96, DE): 0.3134 | UL4 (P17146) protein level (timepoint 96, DE): 0.2128 | UL26 (P16762) protein level (timepoint 96, DE): 0.2828 | UL32 (P08318) protein level (timepoint 96, DE): 0.1168 | UL34 (P16812) protein level (timepoint 96, DE): 0.2231 | UL35 (P16766) protein level (timepoint 96, DE): 0.1252 | UL38 (P16779) protein level (timepoint 96, DE): 0.6672 | UL44 (P16790) protein level (timepoint 96, DE): 0.176 | UL48 (P16785) protein level (timepoint 96, DE): 0.2807 | UL54 (P08546) protein level (timepoint 96, DE): 0.9075 | UL71 (P16823) protein level (timepoint 96, DE): 0.4754 | UL78 (P16751) protein level (timepoint 96, DE): 0.4235 | UL84 (P16727) protein level (timepoint 96, DE): 0.2328 | UL95 (P16801) protein level (timepoint 96, DE): 0.312 | UL96 (P16787) protein level (timepoint 96, DE): 0.4112 | UL97 (P16788) protein level (timepoint 96, DE): 0.3037 | UL98 (P16789) protein level (timepoint 96, DE): 0.4674 | UL102 (P16827) protein level (timepoint 96, DE): 0.9006 | UL104 (P16735) protein level (timepoint 96, DE): 0.3067 | UL112/UL113 (P17151) protein level (timepoint 96, DE): 0.5114 | UL114 (P16769) protein level (timepoint 96, DE): 0.7883 | UL119/UL118 (P16739) protein level (timepoint 96, DE): 0.6695 | UL128 (P16837) protein level (timepoint 96, DE): 0.1937 | US8 (P09730) protein level (timepoint 96, DE): 0.6801 | US9 (P09729) protein level (timepoint 96, DE): 0.7084 | US12 (P09721) protein level (timepoint 96, DE): 0.4505 | US13 (P09720) protein level (timepoint 96, DE): 0.8895 | US14 (P09719) protein level (timepoint 96, DE): 0.3447 | US18 (P69334) protein level (timepoint 96, DE): 0.9283 | US22 (P09722) protein level (timepoint 96, DE): 0.6231 | US23 (P09701) protein level (timepoint 96, DE): 0.5304 | US24 (P09700) protein level (timepoint 96, DE): 0.485 | US34 (P09709) protein level (timepoint 96, DE): 0.2125 | gB (P06473) protein level (timepoint 96, DE): 0.285 | IRS1 (P09715) protein level (timepoint 96, IE): 0.7821 | TRS1 (P09695) protein level (timepoint 96, IE): 0.7146 | UL13 (P16755) protein level (timepoint 96, IE): 0.2986 | UL36 (P16767) protein level (timepoint 96, IE): 0.5836 | UL37 (P16778) protein level (timepoint 96, IE): 0.8017 | UL122 (P19893) protein level (timepoint 96, IE): 0.1642 | UL123 (P13202) protein level (timepoint 96, IE): 0.4758 | CVC1 (P16799) protein level (timepoint 96, L): 0.2252 | GO (P16750) protein level (timepoint 96, L): 0.2443 | IR11 (P16809) protein level (timepoint 96, L): 0.9075 | MCP (P16729) protein level (timepoint 96, L): 0.1482 | SCP (Q7M6N6) protein level (timepoint 96, L): 0.1246 | TRM2 (P16792) protein level (timepoint 96, L): 0.19 | UL22A (P16845) protein level (timepoint 96, L): 0.3485 | UL25 (P16761) protein level (timepoint 96, L): 0.2353 | UL29 (P16764) protein level (timepoint 96, L): 0.6674 | UL30 (P16765) protein level (timepoint 96, L): 0.2355 | UL31 (P16848) protein level (timepoint 96, L): 0.2462 | UL43 (P16781) protein level (timepoint 96, L): 0.05313 | UL52 (P16793) protein level (timepoint 96, L): 0.3224 | UL76 (P16725) protein level (timepoint 96, L): 0.1513 | UL79 (P16752) protein level (timepoint 96, L): 0.3299 | UL80 (P16753) protein level (timepoint 96, L): 0.2674 | UL82 (P06726) protein level (timepoint 96, L): 0.2566 | UL87 (P16730) protein level (timepoint 96, L): 0.2646 | UL88 (P16731) protein level (timepoint 96, L): 0.3926 | UL94 (P16800) protein level (timepoint 96, L): 0.2776 | UL99 (P13200) protein level (timepoint 96, L): 0.1753 | UL103 (P16734) protein level (timepoint 96, L): 0.2489
